Source: patent EP3623369A1, “NOVEL MORPHOLINYL AMINE COMPOUNDS FOR THE TREATMENT OF AUTOIMMUNE DISEASE” (F. Hoffmann-La Roche AG, priority 2018, dated 2020)

Target: T1, hTLR7 (Homo sapiens, UniProt Q9NYK1)
T1 sequence (Q9NYK1 27-1049): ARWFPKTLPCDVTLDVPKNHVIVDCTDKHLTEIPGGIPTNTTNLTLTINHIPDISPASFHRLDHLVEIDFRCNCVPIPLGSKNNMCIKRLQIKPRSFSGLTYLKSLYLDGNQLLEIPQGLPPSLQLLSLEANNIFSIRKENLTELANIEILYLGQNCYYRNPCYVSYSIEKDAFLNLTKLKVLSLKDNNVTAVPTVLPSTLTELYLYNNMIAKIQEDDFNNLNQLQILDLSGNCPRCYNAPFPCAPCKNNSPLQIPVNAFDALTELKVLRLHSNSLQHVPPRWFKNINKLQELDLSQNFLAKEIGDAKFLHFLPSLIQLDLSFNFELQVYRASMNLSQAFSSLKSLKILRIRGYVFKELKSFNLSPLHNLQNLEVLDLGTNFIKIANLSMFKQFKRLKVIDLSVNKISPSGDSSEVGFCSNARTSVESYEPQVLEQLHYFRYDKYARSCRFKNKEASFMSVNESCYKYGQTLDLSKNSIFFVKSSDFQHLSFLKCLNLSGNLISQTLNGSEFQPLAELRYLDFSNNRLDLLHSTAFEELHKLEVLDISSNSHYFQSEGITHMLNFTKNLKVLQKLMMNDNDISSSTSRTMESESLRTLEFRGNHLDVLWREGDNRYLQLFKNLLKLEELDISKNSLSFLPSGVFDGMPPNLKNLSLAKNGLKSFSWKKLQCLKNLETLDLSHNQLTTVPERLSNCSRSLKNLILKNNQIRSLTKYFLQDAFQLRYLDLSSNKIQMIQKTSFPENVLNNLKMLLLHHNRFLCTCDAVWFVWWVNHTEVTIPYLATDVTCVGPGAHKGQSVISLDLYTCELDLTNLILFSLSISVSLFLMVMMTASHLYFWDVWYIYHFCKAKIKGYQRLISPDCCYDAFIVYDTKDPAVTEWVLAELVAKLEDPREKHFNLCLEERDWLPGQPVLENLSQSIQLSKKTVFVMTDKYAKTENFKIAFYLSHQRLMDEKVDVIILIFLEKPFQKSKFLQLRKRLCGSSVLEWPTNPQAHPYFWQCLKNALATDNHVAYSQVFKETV
Experiment: HEK293-Blue-hTLR-7 cells assay (SEAP reporter, R848 stimulation)
Type: cell-based
Conditions: HEK293-Blue-hTLR7 cells, R848, 20 hrs; 0.003 is the lowest tested concentration; read-out: HEK/hTLR7 IC50
Protocol: The following tests were carried out in order to determine the activity of the compounds of formula (I) or (Ia) in HEK293-Blue-hTLR-7/8/9 cells assay.
HEK293-Blue-hTLR-7 cells assay:
A stable HEK293-Blue-hTLR-7 cell line was purchased from InvivoGen (Cat.#: hkb-htlr7, San Diego, California, USA). These cells were originally designed for studying the stimulation of human TLR7 by monitoring the activation of NF-κB. A SEAP (secreted embryonic alkaline phosphatase) reporter gene was placed under the control of the IFN-β minimal promoter fused to five NF-κB and AP-1-binding sites. The SEAP was induced by activating NF-κB and AP-1 via stimulating HEK-Blue hTLR7 cells with TLR7 ligands. Therefore the reporter expression was declined by TLR7 antagonist under the stimulation of a ligand, such as R848 (Resiquimod), for incubation of 20 hrs. The cell culture supernatant SEAP reporter activity was determined using QUANTI-Blue™ kit (Cat.#: rep-qb1, Invivogen, San Diego, Ca, USA) at a wavelength of 640 nm, a detection medium that turns purple or blue in the presence of alkaline phosphatase.
HEK293-Blue-hTLR7 cells were incubated at a density of 250,000∼450,000 cells/mL in a volume of 170 µL in a 96-well plate in Dulbecco's Modified Eagle's medium (DMEM) containing 4.5 g/L glucose, 50 U/mL penicillin, […], […], 2 mM L-glutamine, 10% (v/v) heat-inactivated fetal bovine serum with addition of 20 µL test compound in a serial dilution in the presence of final DMSO at 1% and 10 µL of 20uM R848 in above DMEM, perform incubation under 37 °C in a CO2 incubator for 20 hrs. Then 20 µL of the supernatant from each well was incubated with 180 µL Quanti-blue substrate solution at 37 °C for 2 hrs and the absorbance was read at 620∼655 nm using a spectrophotometer. The signalling pathway that TLR7 activation leads to downstream NF-κB activation has been widely accepted, and therefore similar reporter assay was modified for evaluating TLR7 antagonist.

IC50	Molecule
14 nM	C[C@@H]1CN(c2ccc(C#N)c3ncccc23)C[C@H](CN2CCc3cc(N4CCNCC4)ncc3C2)O1 [Example 70, 5-[(2R,6S)-2-methyl-6-[(6-piperazin-1-yl-3,4-dihydro-1H-2,7-naphthyridin-2-yl)methyl]morpholin-4-yl]quinoline-8-carbonitrile]
11 nM	CC1CNCCN1c1ccc2c(c1)CN(C[C@H]1CN(c3ccc(C#N)c4ncccc34)C[C@@H](C)O1)C2 (stereo partly drawn) [Example 78, 5-[(2R,6S)-2-methyl-6-[[5-(2-methylpiperazin-1-yl)isoindolin-2-yl]methyl]morpholin-4-yl] quinoline-8-carbonitrile]
84 nM	C[C@@H]1CN(c2ccc(C#N)c3ncccc23)C[C@H](CN2Cc3ccc(N4CC5(CNC5)C4)cc3C2)O1 [Example 47, 5-[(2S,6R)-2-[[5-(2,6-diazaspiro[3.3]heptan-2-yl)isoindolin-2-yl]methyl]-6-methyl-morpholin-4-yl]quinoline-8-carbonitrile]
104 nM	C[C@@H]1CN(c2ccc(C#N)n3nccc23)C[C@H](CNCc2ccc(N3CCNCC3)cc2)O1 [Example 16, 4-[(2R,6S)-2-methyl-6-[[(4-piperazin-1-ylphenyl)methylamino]methyl]morpholin-4-yl]pyrazolo[1,5-a]pyridine-7-carbonitrile]
238 nM	CC1c2ccc(N3CCNCC3)cc2CN1C[C@H]1CN(c2ccc(C#N)c3ncccc23)C[C@@H](C)O1 (stereo partly drawn) [Example 48, 5-[(2R,6S)-2-methyl-6-[(1-methyl-5-piperazin-1-yl-isoindolin-2-yl)methyl]morpholin-4-yl]quinoline-8-carbonitrile]
3 nM	C[C@@H]1CN(c2ccc(C#N)c3nccnc23)C[C@H](CN2CCc3cc(N4CCNCC4)ccc3C2)O1 [Example 13, 8-[(2R,6S)-2-methyl-6-[(6-piperazin-1-yl-3,4-dihydro-1H-isoquinolin-2-yl)methyl]morpholin-4-yl]quinoxaline-5-carbonitrile]
34 nM	C[C@@H]1CN(c2ccc(C#N)c3ncccc23)C[C@H](CN2Cc3ccc(N4CCNC[C@H]4CO)cc3C2)O1 [Example 83, 5-[(2S,6R)-2-[[5-[(2S)-2-(hydroxymethyl)piperazin-1-yl]isoindolin-2-yl]methyl]-6-methyl-morpholin-4-yl]quinoline-8-carbonitrile]
7 nM	C[C@@H]1CN(c2ccc(C#N)c3ncccc23)C[C@H](CN2Cc3ccc(N4CCNCC4)nc3C2)O1 [Example 80, 5-[(2R,6S)-2-methyl-6-[(2-piperazin-1-yl-5,7-dihydropyrrolo[3,4-b]pyridin-6-yl)methyl]morpholin-4-yl]quinoline-8-carbonitrile]
41 nM	C[C@@H]1CN(c2ccc(C#N)c3nccnc23)C[C@H](CN2Cc3ccc(N4CCN(C5CC5)CC4)cc3C2)O1 [Example 35, 8-[(2S,6R)-2-[[5-(4-cyclopropylpiperazin-1-yl)isoindolin-2-yl]methyl]-6-methyl-morpholin-4-yl]quinoxaline-5-carbonitrile]
192 nM	C[C@@H]1CN(c2ccc(C#N)n3nccc23)C[C@H](CN2CCc3ccc(N4CCNCC4)cc3C2)O1 [Example 11, 4-[(2R,6S)-2-methyl-6-[(7-piperazin-1-yl-3,4-dihydro-1H-isoquinolin-2-yl)methyl]morpholin-4-yl]pyrazolo[1,5-a]pyridine-7-carbonitrile]
108 nM	C[C@@H]1CN(c2ccc3c(c2)CN(C[C@H]2CN(c4ccc(C#N)c5ncccc45)C[C@@H](C)O2)C3)C[C@H](C)N1 [Example 71, 5-[(2R,6S)-2-methyl-6-[[5-[(3R,5S)-3,5-dimethylpiperazin-1-yl]isoindolin-2-yl]methyl]morpholin-4-yl]quinoline-8-carbonitrile]
21 nM	C[C@@H]1CN(c2ccc(C#N)n3ncc(F)c23)C[C@H](CN2CCc3cc(N4CCNCC4)ccc3C2)O1 [Example 14, 3-fluoro-4-[(2R,6S)-2-methyl-6-[(6-piperazin-1-yl-3,4-dihydro-1H-isoquinolin-2-yl)methyl]morpholin-4-yl]pyrazolo[1,5-a]pyridine-7-carbonitrile]
9 nM	C[C@@H]1CN(c2ccc(C#N)c3ncsc23)C[C@H](CN2CCc3cc(N4CCNCC4)ccc3C2)O1 [Example 24, 7-[(2R,6S)-2-methyl-6-[(6-piperazin-1-yl-3,4-dihydro-1H-isoquinolin-2-yl)methyl]morpholin-4-yl]-1,3-benzothiazole-4-carbonitrile]
56 nM	C[C@@H]1CN(c2ccc(C#N)n3nccc23)C[C@H](CN2Cc3ccc(N4CCNCC4)cc3C2)O1 [Example 4, 4-[(2R,6S)-2-methyl-6-[(5-piperazin-1-ylisoindolin-2-yl)methyl]morpholin-4-yl]pyrazolo[1,5-a]pyridine-7-carbonitrile]
23 nM	C[C@@H]1CN(c2ccc(C#N)c3nccnc23)C[C@H](CN2Cc3ccc(N4CCNC5(CC5)C4)cc3C2)O1 [Example 38, 8-[(2S,6R)-2-[[5-(4,7-diazaspiro[2.5]octan-7-yl)isoindolin-2-yl]methyl]-6-methyl-morpholin-4-yl]quinoxaline-5-carbonitrile]
15 nM	C[C@@H]1CN(c2ccc(C#N)c3ncccc23)C[C@H](CNCc2ccc(N3CCNCC3)cc2)O1 [Example 86, 5-[(2R,6S)-2-methyl-6-[[(4-piperazin-1-ylphenyl)methylamino]methyl]morpholin-4-yl] quinoline-8-carbonitrile]
< 3 nM	C[C@@H]1CN(c2ccc(C#N)c3nccnc23)C[C@H](CN2Cc3ccc(N4CCNCC4)cc3C2)O1 [Example 12, 8-[(2R,6S)-2-methyl-6-[(5-piperazin-1-ylisoindolin-2-yl)methyl]morpholin-4-yl]quinoxaline-5-carbonitrile]
15 nM	C[C@@H]1CN(c2ccc(C#N)c3ncccc23)C[C@H](CN2CCc3nc(N4CCNCC4)ccc3C2)O1 [Example 79, 5-[(2R,6S)-2-methyl-6-[(2-piperazin-1-yl-7,8-dihydro-5H-1,6-naphthyridin-6-yl)methyl]morpholin-4-yl]quinoline-8-carbonitrile]
39 nM	C[C@@H]1CN(c2ccc(Cl)c3ncccc23)C[C@H](CN2CCc3cc(N4CCNCC4)ccc3C2)O1 [Example 32, (2R,6S)-4-(8-chloro-5-quinolyl)-2-methyl-6-[(6-piperazin-1-yl-3,4-dihydro-1H-isoquinolin-2-yl)methyl]morpholine]

Molecule	IC50
C[C@@H]1CN(c2ccc(C#N)c3ncccc23)C[C@H](CN2Cc3ccc(N4CC5COCC(C4)N5)cc3C2)O1 [Example 72, 5-[(2R,6S)-2-methyl-6-[[5-(3-oxa-7,9-diazabicyclo[3.3.1]nonan-7-yl)isoindolin-2-yl]methyl]morpholin-4-yl]quinoline-8-carbonitrile]	45 nM
C[C@@H]1CN(c2ccc(C#N)c3ncccc23)C[C@H](CN2Cc3ccc(N4C5CNCC4COC5)cc3C2)O1 [Example 46, 5-[(2R,6S)-2-methyl-6-[[5-(3-oxa-7,9-diazabicyclo[3.3.1]nonan-9-yl)isoindolin-2-yl]methyl]morpholin-4-yl]quinoline-8-carbonitrile]	74 nM
3-fluoro-4-[(2R,6S)-2-methyl-6-[(5-piperazin-1-ylisoindolin-2-yl)methyl]morpholin-4-yl]pyrazolo[1,5-a]pyridine-7-carbonitrile [Example 7]	42 nM
